# According to US12098151B2 (priority 2018, dated 2024):
# Several values for one entry are separate records, joined by “and”; a condition that tells them apart may be missing. Equal entries are not always repeated. Where two headings read alike, the source gives them in different places.
# Columns and labels:
# [1] = system: Lassa virus (LF2384 strain); test: microbe, parasite or virus in culture; format: cell-based; conditions: Mammarenavirus lassaense, Vero, 72 h, read-out: Log10 of IC90 (nM) (converted)
# [2] = system: Lassa virus (Josiah strain); format: cell-based
# Junin virus = test: microbe, parasite or virus in culture; format: cell-based
# LCMV = test: microbe, parasite or virus in culture; format: cell-based, lymphocytic choriomeningitis virus (LCMV)
# [3] = Mammarenavirus juninense, HEK-293T, 96 h
# [4] = Mammarenavirus choriomeningitidis, KB, 96 h
compound,measurement,setting,value
CC(C)N1CN(C2c3ccccc3CCc3ccccc32)n2cc(C(=O)O)c(=O)c(O)c2C1=O [Compound I-021],IC90,[1],3.1 nM
same,Lassa virus proliferation inhibitory effect compared with control compound Ribavirin,[2],significantly stronger Lassa virus proliferation inhibitory effect than the control compound Ribavirin
same,"Virus infectivity titer (24 h.p.i., PFU/ml)",[2],5 × 10^4 PFU/ml and <10 PFU/ml
same,"Virus infectivity titer (48 h.p.i., PFU/ml)",[2],5 × 10^6 PFU/ml and 5 × 10^3 PFU/ml
same,EC50,Junin virus; [3],8.2 nM
same,EC50,LCMV; [4],2 nM
CC(C)N1CN(C2c3ccc(Cl)cc3CCc3cc(Cl)ccc32)n2cc(C(=O)O)c(=O)c(O)c2C1=O [III-025],EC50,Junin virus; [3],31 nM
same,EC50,LCMV; [4],17 nM
COCCN1C[C@H](C(c2ccccc2)c2ccccc2)n2cc(C(=O)O)c(=O)c(O)c2C1=O [Compound I-045],EC50,Junin virus,374 nM
same,EC50,LCMV,24 nM
O=C(O)c1cn2c(c(O)c1=O)C(=O)N(Cc1ccc(F)cc1F)CN2C1c2ccccc2CCc2ccccc21 [Compound I-081],EC50,Junin virus; [3],6.1 nM
same,EC50,LCMV; [4],24 nM
CC(C)N1CN(C2c3cccc(F)c3CCc3c(F)cccc32)n2cc(C(=O)O)c(=O)c(O)c2C1=O [Compound I-077],EC50,Junin virus; [3],1.8 nM
same,EC50,LCMV; [4],3.3 nM
O=C(O)c1cn2c(c(O)c1=O)C(=O)N1CCCO[C@H]1[C@@H]2C(c1ccccc1)c1ccccc1 [Compound I-047],EC50,Junin virus; [3],414 nM
same,EC50,LCMV; [4],372 nM
CC(C)N1CN(C2c3ccccc3Oc3ccccc32)n2cc(C(=O)O)c(=O)c(O)c2C1=O [III-001],EC50,Junin virus; [3],110 nM
same,EC50,LCMV; [4],19 nM
"NC(=O)c1ncn([C@@H]2O[C@H](CO)[C@@H](O)[C@H]2O)n1 [Ribavirin, reference compound]","Virus infectivity titer (48 h.p.i., PFU/ml)",[2],9 × 10^4 PFU/ml and 6 × 10^6 PFU/ml and 5 × 10^6 PFU/ml
O=C(O)c1cn2c(c(O)c1=O)C(=O)N(CC1CCOCC1)C[C@@H]2C(c1ccccc1)c1ccccc1 [Compound I-034],EC50,Junin virus; [3],68 nM
same,EC50,LCMV; [4],32 nM
CC(C)N1CN(C2c3ccccc3CSc3ccccc32)n2cc(C(=O)O)c(=O)c(O)c2C1=O (stereo not shown) [Compound I-019],EC50,Junin virus,6.9 nM
same,EC50,LCMV,2.2 nM
O=C(O)c1cn2c(c(O)c1=O)C(=O)N(C[C@@H]1CCCO1)CN2C1c2ccccc2CCc2ccccc21 [II-002],EC50,Junin virus; [3],12 nM
same,EC50,LCMV; [4],7.1 nM
O=C(O)c1cn2c(c(O)c1=O)C(=O)N(Cc1ccc(F)cc1Cl)CN2C1c2ccccc2CCc2ccccc21 [III-009],EC50,Junin virus; [3],19 nM
same,EC50,LCMV; [4],37 nM
O=C(O)c1cn2c(c(O)c1=O)C(=O)NC[C@@H]2C(c1ccccc1)c1ccccc1 [Compound I-053],EC50,Junin virus; [3],987 nM
same,EC50,LCMV; [4],275 nM
Cc1cccc2c1CCc1c(C)cccc1C2N1CN(C(C)C)C(=O)c2c(O)c(=O)c(C(=O)O)cn21 [Compound I-075],EC50,Junin virus; [3],1.7 nM
same,EC50,LCMV; [4],3.1 nM
O=C(O)c1cn2c(c(O)c1=O)C(=O)N(CC1CC1)C[C@@H]2C(c1ccccc1)c1ccccc1 [Compound I-028],EC50,Junin virus; [3],40 nM
same,EC50,LCMV; [4],13 nM
CCCCCN1CN(C2c3ccccc3CCc3ccccc32)n2cc(C(=O)O)c(=O)c(O)c2C1=O [III-006],EC50,Junin virus; [3],9.4 nM
same,EC50,LCMV; [4],25 nM
COc1ccc(CN2CN(C3c4ccccc4CCc4ccccc43)n3cc(C(=O)O)c(=O)c(O)c3C2=O)cc1 [III-008],EC50,Junin virus; [3],14 nM
same,EC50,LCMV; [4],19 nM
O=C(O)c1cn2c(c(O)c1=O)C(=O)N(Cc1ccc(F)cc1F)C[C@@H]2C(c1ccccc1)c1ccccc1 [Compound I-020],EC50,Junin virus; [3],7.1 nM
same,EC50,LCMV; [4],5.9 nM
"CC(C)N1CN(C2c3ccccc3C3C(c4ccccc42)C3(F)F)n2cc(C(=O)O)c(=O)c(O)c2C1=O (single isomer, unassigned) [III-010]",EC50,Junin virus; [3],10 nM
same,EC50,LCMV; [4],9.9 nM
COCCN1CN(C2c3ccccc3CCc3ccccc32)n2cc(C(=O)O)c(=O)c(O)c2C1=O [Compound I-079],EC50,Junin virus; [3],5 nM
same,EC50,LCMV; [4],5.3 nM
CCN1CN(C(c2ccccc2)c2ccccc2)n2cc(C(=O)O)c(=O)c(O)c2C1=O [Compound I-005],EC50,Junin virus; [3],28 nM
same,EC50,LCMV; [4],53 nM
CC1Nn2cc(C(=O)O)c(=O)c(O)c2C(=O)N1C (stereo not shown) [Compound I-011],EC50,Junin virus; [3],1670 nM
same,EC50,LCMV; [4],1930 nM
CCC(C)N1C[C@H](C(c2ccccc2)c2ccccc2)n2cc(C(=O)O)c(=O)c(O)c2C1=O (stereo partly shown) [Compound I-033],EC50,Junin virus; [3],68 nM
same,EC50,LCMV; [4],15 nM
CC(C)OCCN1C[C@H](C(c2ccccc2)c2ccccc2)n2cc(C(=O)O)c(=O)c(O)c2C1=O [Compound I-035],EC50,Junin virus; [3],71 nM
same,EC50,LCMV; [4],< 6 nM
O=C(O)c1cn2c(c(O)c1=O)C(=O)N(CC1CCCCO1)C[C@@H]2C(c1ccccc1)c1ccccc1 (stereo partly shown) [Compound I-026],EC50,Junin virus; [3],17 nM
same,EC50,LCMV; [4],6.9 nM
O=C(O)c1cn2c(c(O)c1=O)C(=O)N(C(C1CC1)C1CC1)CN2C1c2ccccc2CSc2ccccc21 (stereo not shown) [III-028],EC50,Junin virus,2.4 nM
same,EC50,LCMV,2.1 nM
C#CCN1C[C@H](C(c2ccccc2)c2ccccc2)n2cc(C(=O)O)c(=O)c(O)c2C1=O [Compound I-040],EC50,Junin virus; [3],173 nM
same,EC50,LCMV; [4],44 nM
O=C(O)c1cn2c(c(O)c1=O)C(=O)N1CCCCN1C2C(c1ccccc1)c1ccccc1 (stereo not shown) [Compound I-043],EC50,Junin virus; [3],281 nM
same,EC50,LCMV; [4],119 nM
O=C(O)c1cn2c(c(O)c1=O)C(=O)N(CC1CCC1)CN2C1c2cccc(F)c2CCc2c(F)cccc21 [III-035],EC50,Junin virus; [3],9.6 nM
same,EC50,LCMV; [4],7.2 nM
O=C(O)c1cn2c(c(O)c1=O)C(=O)N(Cc1ccccn1)C[C@@H]2C(c1ccccc1)c1ccccc1 [Compound I-025],EC50,Junin virus; [3],13 nM
same,EC50,LCMV; [4],5 nM
CC(C)N1CN(C2c3ccccc3CSc3ccccc32)n2cc(C(=O)O)c(=O)c(O)c2C1=O (stereo not shown) [III-020],EC50,Junin virus,> 200 nM
same,EC50,LCMV,121 nM
Cc1ccc2c(c1)CCc1cc(C)ccc1C2N1CN(C(C)C)C(=O)c2c(O)c(=O)c(C(=O)O)cn21 [Compound I-076],EC50,Junin virus; [3],34 nM
same,EC50,LCMV; [4],13 nM
O=C(O)c1cn2c(c(O)c1=O)C(=O)N(CC1CC1)CN2C1c2ccccc2CCc2ccccc21 [II-003],IC90,[1],2.53 nM
same,EC50,Junin virus; [3],6.7 nM
same,EC50,LCMV; [4],8 nM
CC(C)N1CN(C2c3ccccc3CCc3ccccc32)n2cc(C(N)=O)c(=O)c(O)c2C1=O [III-003],EC50,Junin virus; [3],302 nM
same,EC50,LCMV; [4],676 nM
O=C(O)c1cn2c(c(O)c1=O)C(=O)N(CC1CC1)CN2C(c1cccc(-c2ccccc2)c1)c1cccc(-c2ccccc2)c1 [III-030],EC50,Junin virus; [3],18 nM
same,EC50,LCMV; [4],78 nM
CCN1CN(C2c3ccccc3CCc3ccccc32)n2cc(C(=O)O)c(=O)c(O)c2C1=O [Compound I-078],IC90,[1],3.14 nM
same,EC50,Junin virus; [3],3.3 nM
same,EC50,LCMV; [4],6.2 nM
CCCC(C)N1C[C@H](C(c2ccccc2)c2ccccc2)n2cc(C(=O)O)c(=O)c(O)c2C1=O (stereo partly shown) [Compound I-031],EC50,Junin virus; [3],45 nM
same,EC50,LCMV; [4],20 nM
CCCN1C[C@H](C(c2ccccc2)c2ccccc2)n2cc(C(=O)O)c(=O)c(O)c2C1=O [Compound I-032],EC50,Junin virus; [3],64 nM
same,EC50,LCMV; [4],18 nM
O=C(O)c1cn2c(c(O)c1=O)C(=O)N(CC1CC1)CN2C1c2cccc(F)c2CCc2c(F)cccc21 [III-034],EC50,Junin virus; [3],4.5 nM
same,EC50,LCMV; [4],3.5 nM
Cc1cccc2c1CCc1c(C)cccc1C2N1CN(CC2CCC2)C(=O)c2c(O)c(=O)c(C(=O)O)cn21 [III-033],EC50,Junin virus; [3],6.4 nM
same,EC50,LCMV; [4],8.8 nM
